Test results from article PMC10945555, “Improving Activity of New Arylurea Agents against Multidrug-Resistant and Biofilm-Producing Staphylococcus epidermidis” (ACS Medicinal Chemistry Letters, 2024).
In brackets after ≈: the same amount, converted by molar mass. Like-named read-outs stand apart in the source and are kept apart here.

Columns and labels:
Format in all cases: cell-based
[1] = test system: clinical MDR Staphylococcus epidermidis isolates; experiment: MIC, broth microdilution, 81 clinical MDR strains; settings: Staphylococcus epidermidis
Method in brief: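 MICs were determined by twofold broth microdilution in cation-adjusted Mueller-Hinton II broth per EUCAST, over 50–0.1 µg/mL, in duplicate. Compounds were tested as free bases dissolved in DMSO; MIC50 and MIC90 were derived across the 81 clinical MDR S. epidermidis strains.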

[2] = test system: Staphylococcus epidermidis ATCC 35984; experiment: MIC, broth microdilution, MDR/BPSE reference strain; settings: Staphylococcus epidermidis, ATCC35984, read-out: MIC MDR/BPSE, Staphylococcus epidermidis ATCC 35984
Method in brief: (§1)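 Compounds tested as free bases dissolved in DMSO (1 mg/mL stock); determinations done twice; linezolid as positive control.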

[3] = test system: Staphylococcus aureus ATCC BAA-976; experiment: MIC, broth microdilution, MDR/BPSA reference strain; settings: ATCCBAA976; Staphylococcus aureus ATCC BAA-976; read-out: MIC MDR/BPSA
Method in brief: as §1

## O=S(=O)(NC1CCN(CCC(Oc2ccc(C(F)(F)F)cc2)c2cccs2)CC1)c1cccc(Br)c1 (centres unmarked) [Compound 18]
[1]; clinical strain 1 (Table S2), read-out: MIC
  MIC: 0.8 µg/mL (≈ 1.33 µM)
[1]; clinical strain 2 (Table S2), read-out: MIC
  MIC: 3.12 µg/mL (≈ 5.18 µM)
[1]; clinical strain 3 (Table S2), read-out: MIC
  MIC: 6.25 µg/mL (≈ 10.4 µM)
[1]; clinical strain 4 (Table S2), read-out: MIC
  MIC: 50 µg/mL (≈ 82.8 µM)
[1]; clinical strain 5 (Table S2), read-out: MIC
  MIC: 1.6 µg/mL (≈ 2.65 µM)
[1]; clinical strain 6 (Table S2), read-out: MIC
  MIC: 12.5 µg/mL (≈ 20.7 µM)
[1]; clinical strain 7 (Table S2), read-out: MIC
  MIC: 25 µg/mL (≈ 41.4 µM)
[1]; clinical strain 8 (Table S2), read-out: MIC
  MIC: 3.12 µg/mL (≈ 5.18 µM)
[1]; clinical strain 9 (Table S2), read-out: MIC
  MIC: 50 µg/mL (≈ 82.8 µM)
[1]; clinical strain 10 (Table S2), read-out: MIC
  MIC: 50 µg/mL (≈ 82.8 µM)
[1]; clinical strain 11 (Table S2), read-out: MIC
  MIC: 6.25 µg/mL (≈ 10.4 µM)
[1]; clinical strain 12 (Table S2), read-out: MIC
  MIC: 12.5 µg/mL (≈ 20.7 µM)
[1]; clinical strain 13 (Table S2), read-out: MIC
  MIC: 12.5 µg/mL (≈ 20.7 µM)
[1]; clinical strain 14 (Table S2), read-out: MIC
  MIC: 50 µg/mL (≈ 82.8 µM)
[1]; clinical strain 15 (Table S2), read-out: MIC
  MIC: 50 µg/mL (≈ 82.8 µM)
[1]; clinical strain 16 (Table S2), read-out: MIC
  MIC: 50 µg/mL (≈ 82.8 µM)
[1]; clinical strain 17 (Table S2), read-out: MIC
  MIC: 12.5 µg/mL (≈ 20.7 µM)
[1]; clinical strain 18 (Table S2), read-out: MIC
  MIC: 50 µg/mL (≈ 82.8 µM)
[1]; clinical strain 19 (Table S2), read-out: MIC
  MIC: 6.25 µg/mL (≈ 10.4 µM)
[1]; clinical strain 20 (Table S2), read-out: MIC
  MIC: 3.12 µg/mL (≈ 5.18 µM)
[1]; clinical strain 21 (Table S2), read-out: MIC
  MIC: 3.12 µg/mL (≈ 5.18 µM)
[1]; clinical strain 22 (Table S2), read-out: MIC
  MIC: 3.12 µg/mL (≈ 5.18 µM)
[1]; clinical strain 23 (Table S2), read-out: MIC
  MIC: 0.8 µg/mL (≈ 1.33 µM)
[1]; clinical strain 24 (Table S2), read-out: MIC
  MIC: 3.12 µg/mL (≈ 5.18 µM)
[1]; clinical strain 25 (Table S2), read-out: MIC
  MIC: 6.25 µg/mL (≈ 10.4 µM)
[1]; clinical strain 26 (Table S2), read-out: MIC
  MIC: 50 µg/mL (≈ 82.8 µM)
[1]; clinical strain 27 (Table S2), read-out: MIC
  MIC: 0.8 µg/mL (≈ 1.33 µM)
[1]; clinical strain 28 (Table S2), read-out: MIC
  MIC: 50 µg/mL (≈ 82.8 µM)
[1]; clinical strain 29 (Table S2), read-out: MIC
  MIC: 50 µg/mL (≈ 82.8 µM)
[1]; clinical strain 30 (Table S2), read-out: MIC
  MIC: 50 µg/mL (≈ 82.8 µM)
[1]; clinical strain 31 (Table S2), read-out: MIC
  MIC: 50 µg/mL (≈ 82.8 µM)
[1]; clinical strain 32 (Table S2), read-out: MIC
  MIC: 50 µg/mL (≈ 82.8 µM)
[1]; clinical strain 33 (Table S2), read-out: MIC
  MIC: 50 µg/mL (≈ 82.8 µM)
[1]; clinical strain 34 (Table S2), read-out: MIC
  MIC: 50 µg/mL (≈ 82.8 µM)
[1]; clinical strain 35 (Table S2), read-out: MIC
  MIC: 1.6 µg/mL (≈ 2.65 µM)
[1]; clinical strain 36 (Table S2), read-out: MIC
  MIC: 50 µg/mL (≈ 82.8 µM)
[1]; clinical strain 37 (Table S2), read-out: MIC
  MIC: 50 µg/mL (≈ 82.8 µM)
[1]; clinical strain 38 (Table S2), read-out: MIC
  MIC: 50 µg/mL (≈ 82.8 µM)
[1]; clinical strain 39 (Table S2), read-out: MIC
  MIC: 50 µg/mL (≈ 82.8 µM)
[1]; clinical strain 40 (Table S2), read-out: MIC
  MIC: 50 µg/mL (≈ 82.8 µM)
[1]; clinical strain 41 (Table S2), read-out: MIC
  MIC: 6.25 µg/mL (≈ 10.4 µM)
[1]; clinical strain 42 (Table S2), read-out: MIC
  MIC: 1.6 µg/mL (≈ 2.65 µM)
[1]; clinical strain 43 (Table S2), read-out: MIC
  MIC: 1.6 µg/mL (≈ 2.65 µM)
[1]; clinical strain 44 (Table S2), read-out: MIC
  MIC: 50 µg/mL (≈ 82.8 µM)
[1]; clinical strain 45 (Table S2), read-out: MIC
  MIC: 50 µg/mL (≈ 82.8 µM)
[1]; clinical strain 46 (Table S2), read-out: MIC
  MIC: 50 µg/mL (≈ 82.8 µM)
[1]; clinical strain 47 (Table S2), read-out: MIC
  MIC: 50 µg/mL (≈ 82.8 µM)
[1]; clinical strain 48 (Table S2), read-out: MIC
  MIC: 50 µg/mL (≈ 82.8 µM)
[1]; clinical strain 49 (Table S2), read-out: MIC
  MIC: 50 µg/mL (≈ 82.8 µM)
[1]; clinical strain 50 (Table S2), read-out: MIC
  MIC: 50 µg/mL (≈ 82.8 µM)
[1]; clinical strain 51 (Table S2), read-out: MIC
  MIC: 50 µg/mL (≈ 82.8 µM)
[1]; clinical strain 52 (Table S2), read-out: MIC
  MIC: 50 µg/mL (≈ 82.8 µM)
[1]; clinical strain 53 (Table S2), read-out: MIC
  MIC: 50 µg/mL (≈ 82.8 µM)
[1]; clinical strain 54 (Table S2), read-out: MIC
  MIC: 50 µg/mL (≈ 82.8 µM)
[1]; clinical strain 55 (Table S2), read-out: MIC
  MIC: 50 µg/mL (≈ 82.8 µM)
[1]; clinical strain 56 (Table S2), read-out: MIC
  MIC: 50 µg/mL (≈ 82.8 µM)
[1]; clinical strain 57 (Table S2), read-out: MIC
  MIC: 50 µg/mL (≈ 82.8 µM)
[1]; clinical strain 58 (Table S2), read-out: MIC
  MIC: 50 µg/mL (≈ 82.8 µM)
[1]; clinical strain 59 (Table S2), read-out: MIC
  MIC: 50 µg/mL (≈ 82.8 µM)
[1]; clinical strain 60 (Table S2), read-out: MIC
  MIC: 50 µg/mL (≈ 82.8 µM)
[1]; clinical strain 61 (Table S2), read-out: MIC
  MIC: 50 µg/mL (≈ 82.8 µM)
[1]; clinical strain 62 (Table S2), read-out: MIC
  MIC: 50 µg/mL (≈ 82.8 µM)
[1]; clinical strain 63 (Table S2), read-out: MIC
  MIC: 50 µg/mL (≈ 82.8 µM)
[1]; clinical strain 64 (Table S2), read-out: MIC
  MIC: 50 µg/mL (≈ 82.8 µM)
[1]; clinical strain 65 (Table S2), read-out: MIC
  MIC: 6.25 µg/mL (≈ 10.4 µM)
[1]; clinical strain 66 (Table S2), read-out: MIC
  MIC: 3.12 µg/mL (≈ 5.18 µM)
[1]; clinical strain 67 (Table S2), read-out: MIC
  MIC: 50 µg/mL (≈ 82.8 µM)
[1]; clinical strain 68 (Table S2), read-out: MIC
  MIC: 50 µg/mL (≈ 82.8 µM)
[1]; clinical strain 69 (Table S2), read-out: MIC
  MIC: 50 µg/mL (≈ 82.8 µM)
[1]; clinical strain 70 (Table S2), read-out: MIC
  MIC: 50 µg/mL (≈ 82.8 µM)
[1]; clinical strain 71 (Table S2), read-out: MIC
  MIC: 50 µg/mL (≈ 82.8 µM)
[1]; clinical strain 72 (Table S2), read-out: MIC
  MIC: 50 µg/mL (≈ 82.8 µM)
[1]; clinical strain 73 (Table S2), read-out: MIC
  MIC: 50 µg/mL (≈ 82.8 µM)
[1]; clinical strain 74 (Table S2), read-out: MIC
  MIC: 50 µg/mL (≈ 82.8 µM)
[1]; clinical strain 75 (Table S2), read-out: MIC
  MIC: 50 µg/mL (≈ 82.8 µM)
[1]; clinical strain 76 (Table S2), read-out: MIC
  MIC: 50 µg/mL (≈ 82.8 µM)
[1]; clinical strain 77 (Table S2), read-out: MIC
  MIC: 0.8 µg/mL (≈ 1.33 µM)
[1]; clinical strain 78 (Table S2), read-out: MIC
  MIC: 50 µg/mL (≈ 82.8 µM)
[1]; clinical strain 79 (Table S2), read-out: MIC
  MIC: 50 µg/mL (≈ 82.8 µM)
[1]; clinical strain 80 (Table S2), read-out: MIC
  MIC: 50 µg/mL (≈ 82.8 µM)
[1]; clinical strain 81 (Table S2), read-out: MIC
  MIC: 3.12 µg/mL (≈ 5.18 µM)
[1]; mean of MIC values against clinical MDR-SE isolates, read-out: mean MIC
  MIC: 35.2 µg/mL (≈ 58.3 µM)
[1]; 81 clinical strains, concentration inhibiting growth of 50% clinical isolates
  MIC50: 50 µg/mL (≈ 82.8 µM)
[1]; 81 clinical strains, concentration inhibiting growth of 90% of clinical isolates
  MIC90: 50 µg/mL (≈ 82.8 µM)
[2]
  MIC: ≤ 0.8 µg/mL
[3]
  MIC: 50 µg/mL (≈ 82.8 µM)
